US8168861B2, “Compositions and methods for increasing cellulose production” (The Regents of the University of California, priority 2008, dated 2012)

How the values were obtained:
[1] = system: CesA and RLK gene expression; details: isoxaben treatment, cited from earlier work
[2] = system: Arabidopsis thaliana hypocotyl; experiment: Dark-grown hypocotyl growth of SRF mutants on isoxaben media; type: in vivo
Experimental: Data is taken from three independent experiments. Data is from hypocotyl lengths relative to wild type plants grown on the same plate and relative to mutants grown on DMSO control media. Student's t-test: *=p<0.05.
Arabidopsis thaliana ecotype Columbia-0 (Col-0) was used. Before plating seeds were surface sterilized. First, the seeds were washed in 95% ethanol for 10 minutes, which was removed then the sterilization solution was added (20% bleach, 0.05% Tween-20 (Sigma) and double distilled water) and shaken for 10 minutes. The sterilization solution was removed and the seeds were washed three times with sterile distilled water. The seeds were cold treated for 4 days at 4° C. after plating them on the plates. Two different growth media were prepared for these experiments. For the control conditions: one-half strength Murashige and Skoog (MS) salts (Sigma), 0.5% sucrose (Sigma), 0.8% phyto agar (Research Products International Corp.), 1×B5 (1,000× in double distilled water: 10% myo-inositol, 0.1% nicotinic acid and 0.1% pyroxidine HCl) and 1× Thiamin (2,000× in double distilled water: 0.2% thiamin HCl). The other growth media contained either no sucrose but all other components remained the same. Plants used in Fourier Transform Infrared (FT-IR) Microspectroscopy and hypocotyl length, were only grown on sucrose-deprived media in the dark for four days after cold treatment. For selection of mutants from the Arabidopsis Biological Resource Center (ARBC), they were first plated onto MS media containing 50 μg/ml Kanamycin to select for insertions containing the NTPII (Kanamycin resistance) gene. In the case this resistance is lost the seeds were also sown onto regular MS media containing no antibiotic and then transferred to soil after one week. Plants were then grown on soil for 2-3 weeks after transfer from the plates and they were examined for status of the T-DNA insertion. Only homozygous T3 and T4 knockout mutants were used for the following experiments.
Isoxaben is a specific inhibitor of cellulose synthesis by affecting the function of the CesA proteins involved in primary cell wall synthesis, such as CesA3 and CesA6 (Scheible et al., 2001; Persson et al., 2007). Because SRF7 in particular is co-expressed with these same CesA genes the effects of isoxaben on SRF mutants was examined. […] The results which are in agreement with the dark-grown hypocotyl phenotypes of the srf mutants supports the hypothesis that SRF6 and SRF7 regulate CesA-mediated synthesis of the primary cell wall

## CCC(C)(CC)c1cc(NC(=O)c2c(OC)cccc2OC)on1 [isoxaben]
[1]; FIG. 10B
  SRF6 gene expression: reduced gene expression
[1]; FIG. 10D
  primary cell wall CesA gene expression: reduces primary cell wall CesA gene expression
  secondary cell wall CesA gene expression: not the secondary cell wall CesAs
[2]; dominant negative of SRF7, 0.5 and 1 nM isoxaben
  response of hypocotyl length to isoxaben vs wild type: increased resistance
[2]; dominant negative of SRF7, 5 and 10 nM isoxaben
  response of hypocotyl length to isoxaben vs wild type: increase sensitivity
[2]; overexpression of SRF7 in srf7-1 mutant
  response of hypocotyl length to isoxaben vs wild type: wild type resistance
[2]; srf6-1 and srf7-1 mutants (extracellular domain insertion), up to 10 μM, p<0.05
  response of hypocotyl length to isoxaben vs wild type: significantly more resistant
[2]; srf6-2 and srf7-3 mutants
  response of hypocotyl length to isoxaben vs wild type: increased sensitivity
[2]; srf7-2 mutant
  response of hypocotyl length to isoxaben vs wild type: no difference in isoxaben response
